Some test systems named below: NCI-H226; HCT-15; HCC 2998; MOLT-4; NCI-H460; SF-295; ACHN; K562; RPMI-8226; OVCAR-3; SW-620; COLO 205; HCT-116; SF-539; LOX IMVI; M14; OVCAR-5.
What all share (assay): NCI-60 cell line screen, 48 h

This is an account of results in ChEMBL document CHEMBL1201862, “PubChem BioAssay data set” (2004).

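Interpolation was linear, between the two tested concentrations surrounding the appropriate level; five concentrations were tested over 48 hours in 96-well plates. GI50: concentration for 50% inhibition of growth.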 The source made the active and inactive calls. Rule as the data show it: active = GI50 up to about 1.1 µM and inactive = higher.

As to `CC1(SCC(N)C(=O)O)CC(=O)NC1=O` (stereo not given), the GI50 was > 100 µM (inactive) in the test on NCI-H226; more than 100 µM in the test on HCT-15; > 100 µM (inactive) in the test with HCC 2998; > 100 µM (inactive) in the test with MOLT-4; > 100 µM (inactive) in the test with NCI-H460; > 100 µM (inactive) in the test with SF-295. In addition, the GI50 in the test with ACHN was 62.4 µM (inactive); in the test on K562 it was > 100 µM (inactive); in the test with RPMI-8226, > 100 µM (inactive); in the test on OVCAR-3, > 100 µM (inactive); in the test on SW-620, > 100 µM (inactive); in the test with COLO 205, > 100 µM (inactive). Also, the GI50 in the test on HCT-116, in the test with SF-539 and in the test on LOX IMVI was > 100 µM (inactive) throughout.

For the molecule `COc1ccc2c(C(=O)O)cc3cc(OC)c(OC)cc3c2c1`, the GI50 was > 100 µM (inactive) in the test with NCI-H226; more than 100 µM in the test with HCT-15; > 100 µM (inactive) with HCC 2998; > 100 µM (inactive) with MOLT-4; > 100 µM (inactive) in the test on NCI-H460; > 100 µM (inactive) in the test with SF-295. Further, the GI50 in the test with ACHN, in the test with K562, in the test with RPMI-8226, in the test with M14, in the test on OVCAR-5 and in the test on OVCAR-3 was > 100 µM (inactive) each time. The GI50 with SW-620, in the test with COLO 205, in the test with HCT-116, with SF-539 and in the test with LOX IMVI was > 100 µM (inactive) in each case.

Turning to `COC(=O)Cc1cc(=O)[nH]c2c1C(=O)CCC2`, the GI50 in the test with NCI-H226 is > 100 µM (inactive); in the test with HCT-15, more than 100 µM; in the test with HCC 2998, > 100 µM (inactive); with MOLT-4 it was > 100 µM (inactive); in the test on NCI-H460, > 100 µM (inactive); with SF-295, > 100 µM (inactive). The GI50 with ACHN, in the test on K562, with RPMI-8226, in the test on M14, in the test with OVCAR-5 and in the test on OVCAR-3 was > 100 µM (inactive) each time. Besides, the GI50 with SW-620 and in the test on SF-539 was > 100 µM (inactive) each time.

Take `COc1ccc(NC(=O)CC(=O)n2nc(-c3ccccc3)c(/N=N/c3ccccc3C(=O)O)c2-c2ccccc2)cc1`: the GI50 in the test with NCI-H226 is 69.3 µM (inactive); in the test with HCT-15, more than 100 µM; in the test on HCC 2998 it was > 100 µM (inactive); in the test on MOLT-4, 40.6 µM (inactive); with SF-295, 42.4 µM (inactive); with ACHN it was > 100 µM (inactive). Moreover, the GI50 with K562 was 52.7 µM (inactive); in the test with RPMI-8226, > 100 µM (inactive); with OVCAR-5 it was > 100 µM (inactive); with OVCAR-3, > 100 µM (inactive); in the test on SW-620 it was > 100 µM (inactive); in the test with COLO 205, > 100 µM (inactive). The GI50 in the test with HCT-116 was > 100 µM (inactive); in the test with SF-539 it was 55.1 µM (inactive); in the test on LOX IMVI, > 100 µM (inactive).

Consider `COc1ccc(Br)c(CCCCC(=O)O)c1`, for which the GI50 is more than 100 µM in the test on HCT-15; > 100 µM (inactive) in the test with HCC 2998; > 100 µM (inactive) in the test with MOLT-4; > 100 µM (inactive) in the test with NCI-H460; > 100 µM (inactive) with SF-295; > 100 µM (inactive) in the test on ACHN. Moreover, the GI50 in the test with K562, in the test with RPMI-8226, in the test on M14, in the test on OVCAR-3, with SW-620 and in the test with COLO 205 was > 100 µM (inactive) in each case. Also, the GI50 in the test on HCT-116, in the test on SF-539 and with LOX IMVI was > 100 µM (inactive) each time.

For the molecule `NC1=NC(=O)C(CC(=O)Nc2ccc([N+](=O)[O-])cc2[N+](=O)[O-])S1` (stereo not given), the GI50 with NCI-H226, in the test on HCC 2998, in the test on MOLT-4, in the test on NCI-H460, in the test on SF-295 and with ACHN was > 100 µM (inactive) throughout. For the same molecule, the GI50 in the test with RPMI-8226, with M14, in the test on OVCAR-5, in the test with OVCAR-3, in the test on SW-620 and in the test with COLO 205 was > 100 µM (inactive) throughout. The GI50 with HCT-116 and in the test with LOX IMVI was > 100 µM (inactive) throughout.

For `O=[N+]([O-])c1cc2c(cc1O)[nH]c1cccc([N+](=O)[O-])c12`, the GI50 was > 100 µM (inactive) with NCI-H226; more than 100 µM with HCT-15; > 100 µM (inactive) in the test on HCC 2998; > 100 µM (inactive) in the test with MOLT-4; > 100 µM (inactive) in the test on NCI-H460; > 100 µM (inactive) in the test with SF-295. Moreover, the GI50 with ACHN, in the test on K562, in the test with RPMI-8226, with M14, in the test with OVCAR-5 and in the test on OVCAR-3 was > 100 µM (inactive) each time. Also, the GI50 in the test with SW-620, in the test with COLO 205, in the test on HCT-116, in the test with SF-539 and in the test with LOX IMVI was > 100 µM (inactive) in each case.

Consider `Nc1nc(SCc2ccccc2Cl)c2ncn(C3OC(CO)C(O)C3O)c2n1` (stereo not given), for which the GI50 is more than 100 µM in the test on HCT-15; > 100 µM (inactive) in the test with HCC 2998; 49.3 µM (inactive) in the test with MOLT-4; > 100 µM (inactive) with NCI-H460; 59.4 µM (inactive) with SF-295; > 100 µM (inactive) in the test on ACHN. Further, the GI50 with K562 was 57 µM (inactive); in the test with RPMI-8226, 56 µM (inactive); in the test with M14 it was > 100 µM (inactive); with OVCAR-5, > 100 µM (inactive); in the test with OVCAR-3, 80.4 µM (inactive); with SW-620, > 100 µM (inactive). Also, the GI50 is > 100 µM (inactive) in the test on COLO 205, 42.4 µM (inactive) with HCT-116, 89.1 µM (inactive) with SF-539 and 68.9 µM (inactive) with LOX IMVI.

As for `O=[N+]([O-])c1ccc(/C=C/c2ccc(/C=C/c3ccc([N+](=O)[O-])cc3[N+](=O)[O-])cc2)c([N+](=O)[O-])c1`, the GI50 in the test with NCI-H226 is > 100 µM (inactive); in the test with HCT-15 it was more than 100 µM; in the test with HCC 2998, > 100 µM (inactive); with MOLT-4, > 100 µM (inactive); with NCI-H460, > 100 µM (inactive); in the test on SF-295, > 100 µM (inactive). In addition, the GI50 in the test with ACHN, in the test with K562, in the test on RPMI-8226, in the test on M14, with OVCAR-5 and with OVCAR-3 was > 100 µM (inactive) throughout. Besides, the GI50 with SW-620, in the test on HCT-116 and in the test with SF-539 was > 100 µM (inactive) each time.

Consider `CCNCCNC(=O)c1ccc(Br)cc1`, for which the GI50 in the test on NCI-H226 is > 100 µM (inactive); in the test with HCT-15, more than 100 µM; with HCC 2998, > 100 µM (inactive); in the test with MOLT-4 it was > 100 µM (inactive); in the test on NCI-H460, > 100 µM (inactive); in the test with ACHN, > 100 µM (inactive). The GI50 in the test on K562, in the test with RPMI-8226, in the test with M14, in the test with OVCAR-5, in the test with OVCAR-3 and in the test with SW-620 was > 100 µM (inactive) each time. For the same molecule, the GI50 in the test with SF-539 and with LOX IMVI was > 100 µM (inactive) each time.

For `O=S(=O)(O)CS(=O)(=O)OCCCl`, the GI50 in the test on NCI-H226, in the test with HCC 2998, in the test on MOLT-4, with NCI-H460, in the test on SF-295 and in the test on ACHN was > 100 µM (inactive) each time. The GI50 in the test on K562, with RPMI-8226, in the test with M14, with OVCAR-5, with OVCAR-3 and in the test with SW-620 was > 100 µM (inactive) each time. The GI50 in the test with COLO 205, in the test with HCT-116, in the test with SF-539 and in the test on LOX IMVI was > 100 µM (inactive) throughout.

In the case of `Cc1ccccc1SC(/C=C/NNC1=NN=C(c2ccccc2)C(c2ccccc2)N1)c1ccccc1` (stereo not given), the GI50 with NCI-H226 was 18.3 µM (inactive); with HCT-15, 34 µM; in the test on HCC 2998, 40.6 µM (inactive); in the test with MOLT-4, 41.7 µM (inactive); with NCI-H460 it was 34.9 µM (inactive); in the test on SF-295, 18.8 µM (inactive). Besides, the GI50 with ACHN is 15.4 µM (inactive); in the test on K562 it was 30.2 µM (inactive); with RPMI-8226, 27.5 µM (inactive); in the test with M14, 19.1 µM (inactive); with OVCAR-5, > 100 µM (inactive); in the test on OVCAR-3, 13.7 µM (inactive). Moreover, the GI50 is 27.7 µM (inactive) with SW-620, 36.4 µM (inactive) with COLO 205, 13.4 µM (inactive) in the test on SF-539 and 33.8 µM (inactive) in the test on LOX IMVI.

In the case of `Cc1ccc(C(=O)O/N=C2/CCCCC2CN(C)C)cc1` (stereo not given), the GI50 was > 100 µM (inactive) in the test with NCI-H226; more than 100 µM with HCT-15; > 100 µM (inactive) in the test with HCC 2998; > 100 µM (inactive) in the test on MOLT-4; > 100 µM (inactive) with NCI-H460; > 100 µM (inactive) with SF-295. Moreover, the GI50 with ACHN, in the test on K562, in the test on RPMI-8226, with M14, with OVCAR-5 and with OVCAR-3 was > 100 µM (inactive) throughout. Moreover, the GI50 with COLO 205, with HCT-116, in the test on SF-539 and in the test on LOX IMVI was > 100 µM (inactive) throughout.
